Results: the supplement of paper PMC8882468

System: HCI-002 (organoid from a triple-negative breast cancer xenograft)
Assay: CTG-3D luminescence at 96 h relative to day-0 seeding control (ratio to day 0); higher = more growth / less cytotoxicity; PDxO 3D drug screen, 96 h, CTG-3D normalised to day-0 seeding control.
Settings: 12.5 pM; days in culture: 62

| Structure (SMILES) | CTG-3D luminescence at 96 h |
| --- | --- |
| CC(C)(C(=O)NCC(F)(F)C(F)(F)F)C(=O)N[C@@H]1C(=O)Nc2ccccc2-c2ccccc21 | 2.81 |
| C=CC(=O)N1CCC[C@@H](n2nc(-c3ccc(Oc4ccccc4)cc3)c3c(N)ncnc32)C1 [ibrutinib] | 2.83 |
| CNC(=O)c1cccc(-c2ccc3c(N4CCOC[C@@H]4C)nc(N4CCOC[C@@H]4C)nc3n2)c1 [vistusertib] | 2.66 |
| CCN(c1cc(C#CCN2CCOCC2)cc(C(=O)NCc2c(C)cc(C)[nH]c2=O)c1C)[C@H]1CC[C@H](N(C)CCOC)CC1 | 3.56 |

Same assay, conditions: 12.5 pM; days in culture: 82

| Structure (SMILES) | CTG-3D luminescence at 96 h |
| --- | --- |
| CC(C)(C(=O)NCC(F)(F)C(F)(F)F)C(=O)N[C@@H]1C(=O)Nc2ccccc2-c2ccccc21 | 3.56 |
| C=CC(=O)N1CCC[C@@H](n2nc(-c3ccc(Oc4ccccc4)cc3)c3c(N)ncnc32)C1 [ibrutinib] | 3.16 |
| CNC(=O)c1cccc(-c2ccc3c(N4CCOC[C@@H]4C)nc(N4CCOC[C@@H]4C)nc3n2)c1 [vistusertib] | 3.06 |
| CCN(c1cc(C#CCN2CCOCC2)cc(C(=O)NCc2c(C)cc(C)[nH]c2=O)c1C)[C@H]1CC[C@H](N(C)CCOC)CC1 | 3.83 |

Same assay, conditions: 12.5 pM; days in culture: 91

| Structure (SMILES) | CTG-3D luminescence at 96 h |
| --- | --- |
| CC(C)(C(=O)NCC(F)(F)C(F)(F)F)C(=O)N[C@@H]1C(=O)Nc2ccccc2-c2ccccc21 | 4.71 |
| C=CC(=O)N1CCC[C@@H](n2nc(-c3ccc(Oc4ccccc4)cc3)c3c(N)ncnc32)C1 [ibrutinib] | 3.98 |
| CNC(=O)c1cccc(-c2ccc3c(N4CCOC[C@@H]4C)nc(N4CCOC[C@@H]4C)nc3n2)c1 [vistusertib] | 3.62 |
| CCN(c1cc(C#CCN2CCOCC2)cc(C(=O)NCc2c(C)cc(C)[nH]c2=O)c1C)[C@H]1CC[C@H](N(C)CCOC)CC1 | 3.18 |

Same assay, conditions: 12.5 pM; days in culture: 191

| Structure (SMILES) | CTG-3D luminescence at 96 h |
| --- | --- |
| CC(C)(C(=O)NCC(F)(F)C(F)(F)F)C(=O)N[C@@H]1C(=O)Nc2ccccc2-c2ccccc21 | 2.82 |
| C=CC(=O)N1CCC[C@@H](n2nc(-c3ccc(Oc4ccccc4)cc3)c3c(N)ncnc32)C1 [ibrutinib] | 2.76 |
| CNC(=O)c1cccc(-c2ccc3c(N4CCOC[C@@H]4C)nc(N4CCOC[C@@H]4C)nc3n2)c1 [vistusertib] | 2.7 |
| CCN(c1cc(C#CCN2CCOCC2)cc(C(=O)NCc2c(C)cc(C)[nH]c2=O)c1C)[C@H]1CC[C@H](N(C)CCOC)CC1 | 3.6 |

Same assay, conditions: 12.5 pM; days in culture: 209

| Structure (SMILES) | CTG-3D luminescence at 96 h |
| --- | --- |
| CC(C)(C(=O)NCC(F)(F)C(F)(F)F)C(=O)N[C@@H]1C(=O)Nc2ccccc2-c2ccccc21 | 2.45 |
| C=CC(=O)N1CCC[C@@H](n2nc(-c3ccc(Oc4ccccc4)cc3)c3c(N)ncnc32)C1 [ibrutinib] | 2.33 |
| CNC(=O)c1cccc(-c2ccc3c(N4CCOC[C@@H]4C)nc(N4CCOC[C@@H]4C)nc3n2)c1 [vistusertib] | 2.32 |
| CCN(c1cc(C#CCN2CCOCC2)cc(C(=O)NCc2c(C)cc(C)[nH]c2=O)c1C)[C@H]1CC[C@H](N(C)CCOC)CC1 | 2.93 |

Same assay, conditions: 12.5 pM; days in culture: 227

| Structure (SMILES) | CTG-3D luminescence at 96 h |
| --- | --- |
| CC(C)(C(=O)NCC(F)(F)C(F)(F)F)C(=O)N[C@@H]1C(=O)Nc2ccccc2-c2ccccc21 | 5.87 |
| C=CC(=O)N1CCC[C@@H](n2nc(-c3ccc(Oc4ccccc4)cc3)c3c(N)ncnc32)C1 [ibrutinib] | 5.2 |
| CNC(=O)c1cccc(-c2ccc3c(N4CCOC[C@@H]4C)nc(N4CCOC[C@@H]4C)nc3n2)c1 [vistusertib] | 5.65 |
| CCN(c1cc(C#CCN2CCOCC2)cc(C(=O)NCc2c(C)cc(C)[nH]c2=O)c1C)[C@H]1CC[C@H](N(C)CCOC)CC1 | 4.96 |

Same assay, conditions: 0.00025 µM; days in culture: 62

| Structure (SMILES) | CTG-3D luminescence at 96 h |
| --- | --- |
| CC(C)(C(=O)NCC(F)(F)C(F)(F)F)C(=O)N[C@@H]1C(=O)Nc2ccccc2-c2ccccc21 | 2.3 |
| C=CC(=O)N1CCC[C@@H](n2nc(-c3ccc(Oc4ccccc4)cc3)c3c(N)ncnc32)C1 [ibrutinib] | 2.33 |
| CNC(=O)c1cccc(-c2ccc3c(N4CCOC[C@@H]4C)nc(N4CCOC[C@@H]4C)nc3n2)c1 [vistusertib] | 2.61 |
| CCN(c1cc(C#CCN2CCOCC2)cc(C(=O)NCc2c(C)cc(C)[nH]c2=O)c1C)[C@H]1CC[C@H](N(C)CCOC)CC1 | 3.06 |

Same assay, conditions: 0.00025 µM; days in culture: 82

| Structure (SMILES) | CTG-3D luminescence at 96 h |
| --- | --- |
| CC(C)(C(=O)NCC(F)(F)C(F)(F)F)C(=O)N[C@@H]1C(=O)Nc2ccccc2-c2ccccc21 | 2.71 |
| C=CC(=O)N1CCC[C@@H](n2nc(-c3ccc(Oc4ccccc4)cc3)c3c(N)ncnc32)C1 [ibrutinib] | 2.97 |
| CNC(=O)c1cccc(-c2ccc3c(N4CCOC[C@@H]4C)nc(N4CCOC[C@@H]4C)nc3n2)c1 [vistusertib] | 2.8 |
| CCN(c1cc(C#CCN2CCOCC2)cc(C(=O)NCc2c(C)cc(C)[nH]c2=O)c1C)[C@H]1CC[C@H](N(C)CCOC)CC1 | 3.88 |

Same assay, conditions: 0.00025 µM; days in culture: 91

| Structure (SMILES) | CTG-3D luminescence at 96 h |
| --- | --- |
| CC(C)(C(=O)NCC(F)(F)C(F)(F)F)C(=O)N[C@@H]1C(=O)Nc2ccccc2-c2ccccc21 | 3.94 |
| C=CC(=O)N1CCC[C@@H](n2nc(-c3ccc(Oc4ccccc4)cc3)c3c(N)ncnc32)C1 [ibrutinib] | 3.44 |
| CNC(=O)c1cccc(-c2ccc3c(N4CCOC[C@@H]4C)nc(N4CCOC[C@@H]4C)nc3n2)c1 [vistusertib] | 3.61 |
| CCN(c1cc(C#CCN2CCOCC2)cc(C(=O)NCc2c(C)cc(C)[nH]c2=O)c1C)[C@H]1CC[C@H](N(C)CCOC)CC1 | 2.62 |

Same assay, conditions: 0.00025 µM; days in culture: 191

| Structure (SMILES) | CTG-3D luminescence at 96 h |
| --- | --- |
| CC(C)(C(=O)NCC(F)(F)C(F)(F)F)C(=O)N[C@@H]1C(=O)Nc2ccccc2-c2ccccc21 | 2.44 |
| C=CC(=O)N1CCC[C@@H](n2nc(-c3ccc(Oc4ccccc4)cc3)c3c(N)ncnc32)C1 [ibrutinib] | 2.47 |
| CNC(=O)c1cccc(-c2ccc3c(N4CCOC[C@@H]4C)nc(N4CCOC[C@@H]4C)nc3n2)c1 [vistusertib] | 2.8 |
| CCN(c1cc(C#CCN2CCOCC2)cc(C(=O)NCc2c(C)cc(C)[nH]c2=O)c1C)[C@H]1CC[C@H](N(C)CCOC)CC1 | 3.27 |

Same assay, conditions: 0.00025 µM; days in culture: 209

| Structure (SMILES) | CTG-3D luminescence at 96 h |
| --- | --- |
| CC(C)(C(=O)NCC(F)(F)C(F)(F)F)C(=O)N[C@@H]1C(=O)Nc2ccccc2-c2ccccc21 | 2.57 |
| C=CC(=O)N1CCC[C@@H](n2nc(-c3ccc(Oc4ccccc4)cc3)c3c(N)ncnc32)C1 [ibrutinib] | 2.16 |
| CNC(=O)c1cccc(-c2ccc3c(N4CCOC[C@@H]4C)nc(N4CCOC[C@@H]4C)nc3n2)c1 [vistusertib] | 2.49 |
| CCN(c1cc(C#CCN2CCOCC2)cc(C(=O)NCc2c(C)cc(C)[nH]c2=O)c1C)[C@H]1CC[C@H](N(C)CCOC)CC1 | 3.11 |

Same assay, conditions: 0.00025 µM; days in culture: 227

| Structure (SMILES) | CTG-3D luminescence at 96 h |
| --- | --- |
| CC(C)(C(=O)NCC(F)(F)C(F)(F)F)C(=O)N[C@@H]1C(=O)Nc2ccccc2-c2ccccc21 | 5.33 |
| C=CC(=O)N1CCC[C@@H](n2nc(-c3ccc(Oc4ccccc4)cc3)c3c(N)ncnc32)C1 [ibrutinib] | 5.07 |
| CNC(=O)c1cccc(-c2ccc3c(N4CCOC[C@@H]4C)nc(N4CCOC[C@@H]4C)nc3n2)c1 [vistusertib] | 5.55 |
| CCN(c1cc(C#CCN2CCOCC2)cc(C(=O)NCc2c(C)cc(C)[nH]c2=O)c1C)[C@H]1CC[C@H](N(C)CCOC)CC1 | 4.84 |

Same assay, conditions: 0.005 µM; days in culture: 62

| Structure (SMILES) | CTG-3D luminescence at 96 h |
| --- | --- |
| CC(C)(C(=O)NCC(F)(F)C(F)(F)F)C(=O)N[C@@H]1C(=O)Nc2ccccc2-c2ccccc21 | 2.94 |
| C=CC(=O)N1CCC[C@@H](n2nc(-c3ccc(Oc4ccccc4)cc3)c3c(N)ncnc32)C1 [ibrutinib] | 2.92 |
| CNC(=O)c1cccc(-c2ccc3c(N4CCOC[C@@H]4C)nc(N4CCOC[C@@H]4C)nc3n2)c1 [vistusertib] | 3.41 |
| CCN(c1cc(C#CCN2CCOCC2)cc(C(=O)NCc2c(C)cc(C)[nH]c2=O)c1C)[C@H]1CC[C@H](N(C)CCOC)CC1 | 4.04 |

Same assay, conditions: 0.005 µM; days in culture: 82

| Structure (SMILES) | CTG-3D luminescence at 96 h |
| --- | --- |
| CC(C)(C(=O)NCC(F)(F)C(F)(F)F)C(=O)N[C@@H]1C(=O)Nc2ccccc2-c2ccccc21 | 2.34 |
| C=CC(=O)N1CCC[C@@H](n2nc(-c3ccc(Oc4ccccc4)cc3)c3c(N)ncnc32)C1 [ibrutinib] | 2.43 |
| CNC(=O)c1cccc(-c2ccc3c(N4CCOC[C@@H]4C)nc(N4CCOC[C@@H]4C)nc3n2)c1 [vistusertib] | 2.5 |
| CCN(c1cc(C#CCN2CCOCC2)cc(C(=O)NCc2c(C)cc(C)[nH]c2=O)c1C)[C@H]1CC[C@H](N(C)CCOC)CC1 | 2.98 |

Same assay, conditions: 0.005 µM; days in culture: 91

| Structure (SMILES) | CTG-3D luminescence at 96 h |
| --- | --- |
| CC(C)(C(=O)NCC(F)(F)C(F)(F)F)C(=O)N[C@@H]1C(=O)Nc2ccccc2-c2ccccc21 | 3.16 |
| C=CC(=O)N1CCC[C@@H](n2nc(-c3ccc(Oc4ccccc4)cc3)c3c(N)ncnc32)C1 [ibrutinib] | 3.33 |
| CNC(=O)c1cccc(-c2ccc3c(N4CCOC[C@@H]4C)nc(N4CCOC[C@@H]4C)nc3n2)c1 [vistusertib] | 3.38 |
| CCN(c1cc(C#CCN2CCOCC2)cc(C(=O)NCc2c(C)cc(C)[nH]c2=O)c1C)[C@H]1CC[C@H](N(C)CCOC)CC1 | 2.38 |

Same assay, conditions: 0.005 µM; days in culture: 191

| Structure (SMILES) | CTG-3D luminescence at 96 h |
| --- | --- |
| CC(C)(C(=O)NCC(F)(F)C(F)(F)F)C(=O)N[C@@H]1C(=O)Nc2ccccc2-c2ccccc21 | 2.45 |
| C=CC(=O)N1CCC[C@@H](n2nc(-c3ccc(Oc4ccccc4)cc3)c3c(N)ncnc32)C1 [ibrutinib] | 2.21 |
| CNC(=O)c1cccc(-c2ccc3c(N4CCOC[C@@H]4C)nc(N4CCOC[C@@H]4C)nc3n2)c1 [vistusertib] | 3.06 |
| CCN(c1cc(C#CCN2CCOCC2)cc(C(=O)NCc2c(C)cc(C)[nH]c2=O)c1C)[C@H]1CC[C@H](N(C)CCOC)CC1 | 3.28 |
